# Earlier results, collected in patent US20250041246A1, “METHODS AND COMPOSITIONS FOR TREATING VITILIGO” (THE REGENTS OF THE UNIVERSITY OF CALIFORNIA, priority 2021, published 2025).
# Columns and labels:
# [1] = system: hyperpigmentary disorders; conditions: in hyperpigmentary disorders
# [2] = system: existing melanosomes (in melanocytes); conditions: due to its effect on existing melanosomes (in melanocytes)
Compound,effect on skin pigmentation [1],effect on skin pigmentation [2]
CN(C)C(=N)N=C(N)N [metformin],lighten skin,–
[H]/N=C(/N)N/C(=N/[H])NCCc1ccccc1 [phenformin],–,skin darkening effect
